Laboratory results from patent US20080219998A1, “Anti-Thrombotic Agents” (priority 2001, published 2008).
No end group written: not given here.

Tested on: intrinsic pathway
Experiment: activated partial thromboplastin time (APTT) screening coagulation assay
Format: biochemical
Conditions: phage expressing the peptide tested; APTT is a standard screening marker of the activity of the intrinsic pathway
Text: While in vitro or animal testing are not acceptable tools for establishing the safety thus usefulness of drugs, such as anticoagulants, screening compounds for specificity towards factor XI, thus potential utility in the clinic, is an necessary intermediate step in practicing this invention. In such an effort, several FXI-specific peptides have been created using standard phage display technology. […] One example of such a phage is given here. Amino acid sequencing of the peptide expressed by this phage yields Gln-Lys-Met-Gln-His-Gly-Ile-Trp-Asn-Arg-Thr-Ala using standard technology. The phage expressing the peptide is then tested in screening coagulation assays, such as activated partial thromboplastin time (APTT) and prothrombin time (PT). […] This peptide, and other inhibitory compounds with FXI specificity, such as Gln-Gln-Val-Ala-Asn-Trp-Ser-Met-Ser-Pro-Ala, are considered only as examples of intermediate steps in identifying and preparing compounds of this invention that can exclusively reduce FXI activity. Other methods of screening exist.

## QKMQHGIWNRTA [FXI-specific peptide from phage display, tested as the phage expressing it]
  prolongation of APTT: significant prolongation
